The results in this text go back to patent US11555036B2, “FGFR4 inhibitor, preparation method therefor and pharmaceutical use thereof” (Abbisko Therapeutics Co., Ltd., priority 2016, dated 2023).

Each structure is given as a SMILES string.

For experiment [1], the system named is Huh7 hepatocellular carcinoma cells. As to the kind of experiment: FGFR4 cell proliferation experiment, Cell Titer Glo (CTG). In kind it is cell-based. Conditions: HuH-7 cells, 3 days; for IC50: concentration leading to absolute half growth inhibition; for EC50: concentration leading to half maximal growth inhibition. The gist of the method: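 Cells treated with 5-fold serial dilutions starting at 10 μM for 3 days at 37° C, 5% CO2. Proliferation/survival quantified as cellular ATP by CellTiter-Glo luminescence.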

Experiment [2] addresses FGFR4 (Homo sapiens, UniProt P22455). Put plainly: FGFR4 Caliper Assay (in vitro biochemical kinase analysis of FGFR4). Conditions: read-out: Enzymatic activity FGFR4 IC50. The method in brief:
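Kinase reaction at 30° C for 40 min in 50 mM HEPES pH 7.5, 16 mM MgCl2, 1 mM DTT, 0.6% DMSO, stopped with EDTA. Phosphorylated and unphosphorylated fluorescent peptides separated by Caliper microfluidic mobility shift. IC50 by non-linear regression of percent inhibition.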

FGFR4, sequence (P22455 22-802): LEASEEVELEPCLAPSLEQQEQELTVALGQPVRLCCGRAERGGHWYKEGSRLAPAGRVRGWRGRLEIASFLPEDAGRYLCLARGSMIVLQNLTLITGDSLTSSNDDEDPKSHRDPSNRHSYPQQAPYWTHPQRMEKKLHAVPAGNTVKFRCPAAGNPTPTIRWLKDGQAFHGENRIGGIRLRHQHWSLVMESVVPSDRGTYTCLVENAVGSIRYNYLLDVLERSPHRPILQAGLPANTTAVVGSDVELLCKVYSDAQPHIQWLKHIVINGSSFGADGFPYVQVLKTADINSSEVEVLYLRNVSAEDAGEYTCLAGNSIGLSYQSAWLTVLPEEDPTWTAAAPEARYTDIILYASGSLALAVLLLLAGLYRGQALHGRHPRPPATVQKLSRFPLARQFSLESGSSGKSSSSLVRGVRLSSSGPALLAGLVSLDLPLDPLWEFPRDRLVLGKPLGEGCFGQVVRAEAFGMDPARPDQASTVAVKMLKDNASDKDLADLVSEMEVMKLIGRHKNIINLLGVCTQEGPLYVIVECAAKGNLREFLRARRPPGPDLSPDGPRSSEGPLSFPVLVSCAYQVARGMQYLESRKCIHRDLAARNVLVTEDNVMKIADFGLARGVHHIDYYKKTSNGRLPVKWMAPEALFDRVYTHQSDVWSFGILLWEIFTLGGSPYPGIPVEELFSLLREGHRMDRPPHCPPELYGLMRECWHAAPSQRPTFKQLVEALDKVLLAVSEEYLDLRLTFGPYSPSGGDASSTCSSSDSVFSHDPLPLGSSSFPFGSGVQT

In experiment [1] (Homo sapiens, Huh-7, 72 h), `C=CC(=O)N[C@H]1CCOC[C@H]1Nc1ncc2cc(-c3c(F)c(OC)cc(OC)c3F)nc(N3CC(OC)C3)c2n1` [Example 775, N-((3S,4S)-3-((6-(2,6-difluoro-3,5-dimethoxyphenyl)-8-(3-methoxyazetidin-1-yl)pyrido[3,4-d]pyrimidin-2-yl)amino)tetrahydro-2H-pyran-4-yl)acrylamide] showed an IC50 of 27.8 nM and an EC50 of 20.8 nM. For the same compound, in experiment [2], the IC50 turned out to be 8.9 nM.
In experiment [1], `C=CC(=O)N[C@H]1COC[C@H]1Nc1ncc2cc(-c3c(Cl)c(OC)cc(OC)c3Cl)nc(N3CC4(CCOCC4)C3)c2n1` [Example 776, N-((3R,4S)-4-((6-(2,6-dichloro-3,5-dimethoxyphenyl)-8-(7-oxa-2-azaspiro [3.5]nonan-2-yl)pyrido[3,4-d]pyrimi-din-2-yl)amino)tetrahydrofuran-3-yl)acrylamide] had an IC50 of 9.4 nM and an EC50 of 7.9 nM. For the same compound, the IC50 in experiment [2] amounted to 4.9 nM.
In experiment [1] (Homo sapiens, Huh-7, 72 h), `C=CC(=O)N[C@H]1CCOC[C@H]1Nc1ncc2cc(-c3c(F)c(OC)cc(OC)c3F)nc(NC)c2n1` [Example 786, N-((3S,4S)-3-((6-(2,6-difluoro-3,5-dimethoxyphenyl)-8-(methylamino)py-rido[3,4-d]pyrimidin-2-yl)amino)tetra-hydro-2H-pyran-4-yl)acrylamide] yielded an IC50 of 47.6 nM and an EC50 of 38.4 nM. Moreover, in experiment [2], the IC50 was 17 nM.
In experiment [1] (Homo sapiens, Huh-7, 72 h), `C=CC(=O)N[C@H]1CCOC[C@H]1Nc1ncc2cc(-c3c(F)c(OC)cc(OC)c3F)nc(NCC)c2n1` [Example 787, N-((3S,4S)-3-((6-(2,6-difluoro-3,5-dimethoxyphenyl)-8-(ethylamino)pyri-do[3,4-d]pyrimidin-2-yl)amino)tetra-hydro-2H-pyran-4-yl)acrylamide] returned an IC50 of 103 nM and an EC50 of 86 nM. Further, in experiment [2], the IC50 is 45 nM.
As to `C=CC(=O)N[C@H]1CCOC[C@H]1Nc1ncc2cc(-c3c(F)c(OC)cc(OC)c3F)nc(N3CCOCC3)c2n1` [Example 789, N-((3S,4)S-3-((6-(2,6-difluoro-3,5-dimethoxyphenyl)-8-morpholinopy-rido[3,4-d]pyrimidin-2-yl)amino)tetra-hydro-2H-pyran-4-yl)acrylamide], the IC50 in experiment [1] (Homo sapiens, Huh-7, 72 h) was 15.9 nM; in experiment [2], 7.8 nM. The compound also showed an EC50 in experiment [1] (Homo sapiens, Huh-7, 72 h) of 12.6 nM.
With `C=CC(=O)N[C@H]1CCOC[C@H]1Nc1ncc2cc(-c3c(F)c(OC)cc(OC)c3F)nc(N3CC(C)(OC)C3)c2n1` [Example 790, N-((3S,4S)-3-((6-(2,6-difluoro-3,5-dimethoxyphenyl)-8-(3-methoxy-3-methylazetidin-1-yl)pyrido[3,4-d]py-rimidin-2-yl)amino)tetrahydro-2H-pyran-4-yl)acrylamide], the IC50 in experiment [1] (Homo sapiens, Huh-7, 72 h) is 13.6 nM; in experiment [2] it was 8.5 nM. The same compound gave a concentration for a half-maximal effect (EC50) in experiment [1] (Homo sapiens, Huh-7, 72 h) of 11.4 nM.
In experiment [1] (Homo sapiens, Huh-7, 72 h), `C=CC(=O)N[C@H]1CCOC[C@H]1Nc1ncc2cc(-c3c(F)c(OC)cc(OC)c3F)nc(N3CC(F)(F)C3)c2n1` [Example 791, N-((3S,4S)-3-((6-(2,6-difluoro-3,5-dimethoxyphenyl)-8-(3,3-difluoroazet-idin-1-yl)pyrido[3,4-d]pyrimidin-2-yl)amino)tetrahydro-2H-pyran-4-yl)acrylamide] returned an IC50 of 8.4 nM and an EC50 of 6.4 nM. Further, in experiment [2], the IC50 was determined as 3.7 nM.
Consider `C=CC(=O)N[C@H]1CCOC[C@H]1Nc1ncc2cc(-c3c(F)c(OC)cc(OC)c3F)nc(N3CCC3)c2n1` [Example 792, N-((3S,4S)-3-((8-(azetidin-1-yl)-6-(2,6-difluoro-3,5-dimethoxyphenyl)py-rido[3,4-d]pyrimidin-2-yl)amino)tetra-hydro-2H-pyran-4-yl)acrylamide], for which, in experiment [1] (Homo sapiens, Huh-7, 72 h), 6.2 nM corresponded to half-maximal inhibition (IC50) and the EC50 came to 4.8 nM. Moreover, the half-inhibitory concentration (IC50) in experiment [2] came to 3.1 nM.

As usually defined, the IC50 is the midpoint of a concentration-inhibition curve. As usually defined, the EC50 is the concentration giving half of the maximal effect. A high value points to weaker potency.
